From ChEMBL document CHEMBL1201861, “Genomics of Drug Sensitity in Cancer screening data, Wellcome Trust Sanger Institute”

Tests used:
Assay in all cases: cells
Format in all cases: functional, cell-based, Homo sapiens
HCC1419 = conditions: Homo sapiens, HCC1419;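 note: growth inhibition of human HCC1419 cells, read out as cell viability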
Description: SANGER: Inhibition of human HCC1419 cell growth in a cell viability assay.

MC-IXC = conditions: Homo sapiens, MC-IXC;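 note: growth inhibition of MC-IXC cells, read out with a cell viability assay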
Description: SANGER: Inhibition of human MC-IXC cell growth in a cell viability assay.

RVH-421 = conditions: Homo sapiens, RVH-421
Description: SANGER: Inhibition of human RVH-421 cell growth in a cell viability assay.

639-V = conditions: Homo sapiens, 639-V;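 note: growth inhibition of 639-V cells, read out with a cell viability assay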
Description: SANGER: Inhibition of human 639-V cell growth in a cell viability assay.

CAL-120 = conditions: Homo sapiens, CAL-120;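 note: cell growth inhibition, read out as cell viability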
Description: SANGER: Inhibition of human CAL-120 cell growth in a cell viability assay.

MDA-MB-453 = conditions: Homo sapiens, MDA-MB-453
Description: SANGER: Inhibition of human MDA-MB-453 cell growth in a cell viability assay.

TYK-nu = conditions: Homo sapiens, TYK-nu;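 note: growth inhibition of human TYK-nu cells, read out by a cell viability assay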
Description: SANGER: Inhibition of human TYK-nu cell growth in a cell viability assay.

SW1990 = conditions: Homo sapiens, SW1990;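 note: cell growth inhibition determined with a viability assay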
Description: SANGER: Inhibition of human SW1990 cell growth in a cell viability assay.

PANC-03-27 = conditions: Homo sapiens, PANC-03-27
Description: SANGER: Inhibition of human PANC-03-27 cell growth in a cell viability assay.

KYSE-140 = conditions: Homo sapiens, KYSE-140;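 note: cell viability assay measuring growth inhibition in human KYSE-140 cells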
Description: SANGER: Inhibition of human KYSE-140 cell growth in a cell viability assay.

BEN = conditions: Homo sapiens, BEN;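 note: growth inhibition of the BEN cell line, read out with a cell viability assay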
Description: SANGER: Inhibition of human BEN cell growth in a cell viability assay.

T-24 = conditions: Homo sapiens, T-24;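 note: growth inhibition of T-24 cells, read out with a cell viability assay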
Description: SANGER: Inhibition of human T-24 cell growth in a cell viability assay.

EGI-1 = conditions: Homo sapiens, EGI-1;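 note: cell viability readout used to gauge growth inhibition of EGI-1 cells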
Description: SANGER: Inhibition of human EGI-1 cell growth in a cell viability assay.

A2058 = conditions: Homo sapiens, A2058;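 note: reduction of A2058 cell growth, read out with a viability assay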
Description: SANGER: Inhibition of human A2058 cell growth in a cell viability assay.

NCI-H460 = conditions: Homo sapiens, NCI-H460;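 note: cell viability assay scoring growth inhibition of human NCI-H460 cells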
Description: SANGER: Inhibition of human NCI-H460 cell growth in a cell viability assay.

SW1573 = conditions: Homo sapiens, SW1573;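 note: growth inhibition of SW1573 cells, read out with a cell viability assay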
Description: SANGER: Inhibition of human SW1573 cell growth in a cell viability assay.

A549 = conditions: Homo sapiens, A549;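 note: growth inhibition of A549 cells, read out with a cell viability assay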
Description: SANGER: Inhibition of human A549 cell growth in a cell viability assay.

JEG-3 = conditions: Homo sapiens, JEG-3;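 note: growth inhibition of human JEG-3 cells, read out with a cell viability assay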
Description: SANGER: Inhibition of human JEG-3 cell growth in a cell viability assay.

PA-1 = conditions: Homo sapiens, PA-1;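 note: IC50 for suppression of PA-1 cell proliferation, determined with a cell viability read-out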
Description: SANGER: Inhibition of human PA-1 cell growth in a cell viability assay.

UO-31 = conditions: Homo sapiens, UO-31;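 note: cell viability assay measuring inhibition of cell growth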
Description: SANGER: Inhibition of human U031 cell growth in a cell viability assay.

769-P = conditions: Homo sapiens, 769-P
Description: SANGER: Inhibition of human 769-P cell growth in a cell viability assay.

CAL-39 = conditions: Homo sapiens, CAL-39;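 note: cell viability assay measuring growth inhibition of CAL-39 cells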
Description: SANGER: Inhibition of human CAL-39 cell growth in a cell viability assay.

FaDu = conditions: Homo sapiens, FaDu;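 note: cell viability readout of growth inhibition in FaDu cells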
Description: SANGER: Inhibition of human FADU cell growth in a cell viability assay.

OC-314 = conditions: Homo sapiens, OC-314
Description: SANGER: Inhibition of human OC-314 cell growth in a cell viability assay.

MCF7 = conditions: Homo sapiens, MCF7;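 note: growth inhibition of human MCF7 cells, read out with a cell viability assay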
Description: SANGER: Inhibition of human MCF7 cell growth in a cell viability assay.

HMV-2 cell line = conditions: Homo sapiens, HMV-2;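 note: growth inhibition of HMV-II cells, read out with a cell viability assay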
Description: SANGER: Inhibition of human HMV-II cell growth in a cell viability assay.

NCI-H2228 = conditions: Homo sapiens, NCI-H2228;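 note: growth inhibition of human NCI-H2228 cells, read out by a cell viability assay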
Description: SANGER: Inhibition of human NCI-H2228 cell growth in a cell viability assay.

HuO9 = conditions: Homo sapiens, HuO9;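 note: growth inhibition of HuO9 cells, read out with a cell viability assay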
Description: SANGER: Inhibition of human HuO9 cell growth in a cell viability assay.

MG-63 = conditions: Homo sapiens, MG-63;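 note: growth inhibition of human MG-63 cells, read out with a cell viability assay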
Description: SANGER: Inhibition of human MG-63 cell growth in a cell viability assay.

NUGC-3 = conditions: Homo sapiens, NUGC-3;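 note: growth inhibition of human NUGC-3 cells, read out with a cell viability assay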
Description: SANGER: Inhibition of human NUGC-3 cell growth in a cell viability assay.

NCI-H1792 = conditions: Homo sapiens, NCI-H1792;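 note: growth inhibition of human NCI-H1792 cells, read out as cell viability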
Description: SANGER: Inhibition of human NCI-H1792 cell growth in a cell viability assay.

BFTC-905 = conditions: Homo sapiens, BFTC-905
Description: SANGER: Inhibition of human BFTC-905 cell growth in a cell viability assay.

DU-145 = conditions: Homo sapiens, DU-145
Description: SANGER: Inhibition of human DU-145 cell growth in a cell viability assay.

A-431 = conditions: Homo sapiens, A-431;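 note: growth inhibition of A-431 cells, determined with a cell viability read-out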
Description: SANGER: Inhibition of human A431 cell growth in a cell viability assay.

HOP-92 = conditions: Homo sapiens, HOP-92;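 note: cell viability readout, with IC50 reflecting inhibition of HOP-92 cell growth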
Description: SANGER: Inhibition of human HOP-92 cell growth in a cell viability assay.

SK-OV-3 = conditions: Homo sapiens, SK-OV-3;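 note: growth inhibition of SK-OV-3 human cells, read out with a cell viability assay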
Description: SANGER: Inhibition of human SK-OV-3 cell growth in a cell viability assay.

IGR-1 = conditions: Homo sapiens, IGR-1;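 note: growth inhibition of human IGR-1 cells, read out with a cell viability assay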
Description: SANGER: Inhibition of human IGR-1 cell growth in a cell viability assay.

COLO-741 = conditions: Homo sapiens, COLO-741
Description: SANGER: Inhibition of human COLO-741 cell growth in a cell viability assay.

HCC1937 = conditions: Homo sapiens, HCC1937;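 note: growth inhibition measured with a cell viability read-out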
Description: SANGER: Inhibition of human HCC1937 cell growth in a cell viability assay.

NCI-H2009 = conditions: Homo sapiens, NCI-H2009;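 note: cell viability assay measuring inhibition of NCI-H2009 cell growth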
Description: SANGER: Inhibition of human NCI-H2009 cell growth in a cell viability assay.

Compound | IC50 (HCC1419) [µM] | IC50 (MC-IXC) [µM] | IC50 (RVH-421) [µM] | IC50 (639-V) [µM] | IC50 (CAL-120) [µM] | IC50 (MDA-MB-453) [µM] | IC50 (TYK-nu) [µM] | IC50 (SW1990) [µM] | IC50 (PANC-03-27) [µM] | IC50 (KYSE-140) [µM] | IC50 (BEN) [µM] | IC50 (T-24) [µM] | IC50 (EGI-1) [µM] | IC50 (A2058) [µM] | IC50 (NCI-H460) [µM] | IC50 (SW1573) [µM] | IC50 (A549) [µM] | IC50 (JEG-3) [µM] | IC50 (PA-1) [µM] | IC50 (UO-31) [µM] | also measured
COc1cc2c(Nc3ccc(NC(=O)c4ccccc4)cc3)ncnc2cc1OCCCN1CCOCC1 | > 4 | > 4 | > 4 | > 4 | > 4 | > 4 | > 4 | > 4 | > 4 | > 4 | > 4 | > 4 | > 4 | > 4 | 3.07 | > 4 | 2.64 | > 4 | 2.87 | > 4 | IC50 (769-P): > 4 µM; IC50 (CAL-39): > 4 µM; IC50 (FaDu): > 4 µM; IC50 (OC-314): > 4 µM; IC50 (MCF7): > 4 µM; IC50 (HMV-2 cell line): > 4 µM; IC50 (NCI-H2228): > 4 µM; IC50 (HuO9): > 4 µM; IC50 (MG-63): > 4 µM; IC50 (NUGC-3): 3.85 µM; IC50 (NCI-H1792): > 4 µM; IC50 (BFTC-905): 2.42 µM; IC50 (DU-145): > 4 µM; IC50 (A-431): > 4 µM; IC50 (HOP-92): > 4 µM; IC50 (SK-OV-3): > 4 µM; IC50 (IGR-1): > 4 µM; IC50 (COLO-741): > 4 µM; IC50 (HCC1937): > 4 µM
CS(=O)(=O)c1ccc(C(=O)Nc2ccc(Cl)c(-c3ccccn3)c2)c(Cl)c1 [VISMODEGIB] | > 10 | > 10 | > 10 | > 10 | > 10 | > 10 | > 10 | > 10 | > 10 | > 10 | > 10 | > 10 | > 10 | > 10 | > 10 | > 10 | > 10 | > 10 | > 10 | > 10 | IC50 (769-P): > 10 µM; IC50 (CAL-39): > 10 µM; IC50 (FaDu): > 10 µM; IC50 (OC-314): > 10 µM; IC50 (MCF7): > 10 µM; IC50 (HMV-2 cell line): > 10 µM; IC50 (NCI-H2228): > 10 µM; IC50 (HuO9): > 10 µM; IC50 (MG-63): > 10 µM; IC50 (NUGC-3): > 10 µM; IC50 (NCI-H1792): > 10 µM; IC50 (NCI-H2009): > 10 µM; IC50 (BFTC-905): > 10 µM; IC50 (DU-145): > 10 µM; IC50 (A-431): > 10 µM; IC50 (HOP-92): > 10 µM; IC50 (SK-OV-3): > 10 µM; IC50 (IGR-1): > 10 µM; IC50 (COLO-741): > 10 µM; IC50 (HCC1937): > 10 µM
CC1(C)CNc2cc(NC(=O)c3cccnc3NCc3ccncc3)ccc21 [MOTESANIB] | > 2 | > 2 | > 2 | > 2 | > 2 | > 2 | > 2 | > 2 | > 2 | > 2 | > 2 | > 2 | > 2 | > 2 | > 2 | > 2 | > 2 | > 2 | > 2 | > 2 | IC50 (769-P): > 2 µM; IC50 (CAL-39): > 2 µM; IC50 (FaDu): > 2 µM; IC50 (OC-314): > 2 µM; IC50 (MCF7): > 2 µM; IC50 (HMV-2 cell line): > 2 µM; IC50 (NCI-H2228): > 2 µM; IC50 (HuO9): > 2 µM; IC50 (MG-63): > 2 µM; IC50 (NUGC-3): > 2 µM; IC50 (NCI-H1792): > 2 µM; IC50 (BFTC-905): > 2 µM; IC50 (DU-145): 0.469 µM; IC50 (A-431): > 2 µM; IC50 (HOP-92): > 2 µM; IC50 (SK-OV-3): > 2 µM; IC50 (IGR-1): > 2 µM; IC50 (COLO-741): > 2 µM; IC50 (HCC1937): > 2 µM
